A short description of data set [1]: refractive index (Na D-line) (dimensionless). Conditions: 293.15 K; 101.33 kPa; Liquid; Standard Abbe refractometry.
For data set [2] the following is noted: 293.15 K; 101.33 kPa; Liquid; Vibrating tube method.
Data set [3] in a line: wn = mass fraction of the nth substance listed. Conditions: 293.15 K; 101.3 kPa; Liquid; Vibrating tube method; w1 = 0.85.
Data set [4] can be described thus: refractive index (Na D-line) (dimensionless); wn = mass fraction of the nth substance listed. Conditions: 293.15 K; 101.3 kPa; Liquid; Standard Abbe refractometry; w1 = 0.85.

± gives the expanded uncertainty stated by the source.

With `CC(=O)OC1CCCCC1` [cyclohexyl ethanoate], the refractive index (commonly a measure of how strongly the sample bends light) in data set [1] was 1.4425 ± 0.0011. Moreover, the mass density – broadly, the mass of a sample divided by its volume – in data set [2] turned out to be 970.1 ± 1.2 kg/m3.

Consider `CCCCCCOC(C)=O` [hexyl ethanoate], for which the refractive index in data set [1] was determined as 1.4096 ± 0.0011. Also, in data set [2], the mass density is on record as 873.3 ± 1.2 kg/m3.

Consider `O=P(O)(O)O` [phosphoric acid] + O, for which the mass density in data set [3] came to 1682.8 ± 1 kg/m3. The refractive index in data set [4] came to 1.4345 ± 0.001.

With `O` [water], the refractive index in data set [1] is recorded as 1.333 ± 0.001. The mass density in data set [2] came to 998.3 ± 1 kg/m3.

The values are drawn from the NIST ThermoML archive (doi:10.1016/j.jct.2016.03.025).
